Read-outs that look alike come from different tables or passages of the source.
How the values were obtained:
[1] = system: S. epidermidis ATCC 12228; assay: MIC broth microdilution; type: cell-based; settings: 19 h, 35 °C; for MIC: Staphylococcus epidermidis, ATCC12228, read-out: MIC S. epidermidis ATCC 12228
Text: (§1) To evaluate the antibacterial effectiveness of chloroquinobenzothiazine derivatives, various bacterial strains from international microbe collections such as the American Type Culture Collection (ATCC) and the National Collection of Type Culture (NCTC) were examined, alongside a panel of clinical rods. This included two Gram-negative organisms, E. coli ATCC 25922 and P. aeruginosa ATCC 15442, and a series of six Gram-positive strains: S. aureus NCTC 4163; S. aureus ATCC 29213, 25923, and 6538; and S. epidermidis ATCC 12228 and 35984. […] The MIC was determined using the two-fold serial broth microdilution method in 96-well microtitration plates containing Mueller-Hinton II broth medium (Becton Dickinson, Franklin Lakes, NJ, USA). The final inoculum for all tested bacteria was adjusted to […] (colony-forming units per milliliter). The stock solution of the tested compounds was prepared in dimethyl sulfoxide (DMSO) and diluted to a maximum of 1% solvent content with a sterile medium.

[2] = system: S. aureus ATCC 29213; assay: MIC broth microdilution; type: cell-based; settings: 19 h, 35 °C; for MIC: Staphylococcus aureus, ATCC29213, read-out: MIC S. aureus ATCC 29213
Text: as §1

[3] = system: P. aeruginosa ATCC 15442; assay: MIC broth microdilution; type: cell-based; settings: 19 h, 35 °C; for MIC: Pseudomonas aeruginosa, ATCC15442, read-out: MIC P. aeruginosa ATCC 15442
Text: as §1

[4] = system: E. coli ATCC 25922; assay: MIC broth microdilution; type: cell-based; settings: 19 h, 35 °C; for MIC: Escherichia coli, ATCC25922, read-out: MIC E. coli ATCC 25922
Text: as §1

[5] = system: S. aureus ATCC 25923; assay: MIC broth microdilution; type: cell-based; settings: 19 h, 35 °C; for MIC: Staphylococcus aureus, ATCC25923, read-out: MIC S. aureus ATCC 25923
Text: as §1

[6] = system: S. aureus NCTC 4163; assay: MIC broth microdilution; type: cell-based; settings: 19 h, 35 °C; for MIC: Staphylococcus aureus, NCTC4163, read-out: MIC S. aureus NCTC 4163
Text: as §1

[7] = system: S. epidermidis ATCC 35984; assay: MIC broth microdilution; type: cell-based; settings: 19 h, 35 °C; for MIC: Staphylococcus epidermidis, ATCC35984, read-out: MIC S. epidermidis ATCC 35984
Text: as §1

[8] = system: S. aureus ATCC 6538; assay: MIC broth microdilution; type: cell-based; settings: 19 h, 35 °C; for MIC: Staphylococcus aureus, ATCC6538, read-out: MIC S. aureus ATCC 6538
Text: as §1

[9] = system: MDA-MB-231 (breast cancer); assay: MTT assay, MDA-MB-231 cells; type: cell-based, human; settings: for IC50: MTT, 72 h, MDA-MB231, read-out: IC50 MDA; for SI MDA: SI = IC50 for normal cell line (HaCaT)/IC50 cancer cell line
Procedure: (§2) The human cell lines, such as A549 (lung cancer), MDA-MB-231 (breast cancer), MiaPaca-2 (pancreatic cancer), PC3 (metastatic prostate cancer), HCT-116 (colon carcinoma), and HaCaT (immortalized keratinocytes), were sourced from the American Type Culture Collection (ATCC) in Rockville, USA. Culturing conditions varied as follows: HCT116 cells were cultured in MEM (ThermoSci, Waltham, MA, USA), A549, MDA-MB-231, MiaPaca, HaCaT cells in DMEM High Glucose and PC3 cells were cultured in RPMI (Biowest SAS, Nuaillé, France). The growth medium consisted of 10% fetal bovine serum (FBS, Sigma-Aldrich, St. Louis, MO, USA), 20 mM HEPES (Biowest, Nuaillé, France), and antibiotics (100 U/mL of penicillin and 100 μg/mL of streptomycin) from Gibco, Grand Island, NY, USA. […] These compounds were added to 96-well plates containing study cells (1 × 10^4 cells per well) and incubated for 72 h. […] Cell absorbance results were incorporated into the formula for calculating the relative MTT level (%), enabling the assessment of cell viability following exposure to the test compounds. The cell viability percentage represents the MTT reduction in cells treated with the test compounds compared to the control sample, where only the medium was added to the cells.

[10] = system: HaCaT (immortalized human keratinocytes); assay: MTT assay, HaCaT normal cells; type: cell-based; settings: MTT, 72 h, normal cells, read-out: IC50 HaCaT (Table 3)
Procedure: as §2

[11] = system: A549 (lung cancer); assay: MTT assay, A549 cells; type: cell-based, human; settings: for IC50: MTT, 72 h, mean SD, read-out: IC50 A549; for SI A549: SI = IC50 for normal cell line (HaCaT)/IC50 cancer cell line
Procedure: as §2

Row | Compound | MIC [1] [µg/mL] | MIC [2] [µg/mL] | MIC [3] [µg/mL] | MIC [4] [µg/mL] | MIC [5] [µg/mL] | MIC [6] [µg/mL] | MIC [7] [µg/mL] | MIC [8] [µg/mL] | IC50 ([9]; Homo sapiens, MDA-MB-231) [µM] | SI MDA [9] | IC50 ([10]; Homo sapiens, HaCaT) [µM] | IC50 ([11]; Homo sapiens, A549) [µM] | SI A549 [11] | other results
1 | CC(=O)NCCCN1c2cc(Cl)ccc2Sc2cc3ccccc3nc21 [Compound 16, N-(3-(8-Chloroquino[3,2-b]benzo[1,4]thiazin-6-yl)propyl)acetamide] | > 256 | > 256 | > 256 | > 256 | > 256 | > 256 | > 256 | > 256 | 76.6 ± 8.9 | 1.3 | > 100 | 24.6 ± 6.1 | 4.1 | –
2 | 8-Chloro-6-[(1-(4-chlorobenzyl)-1H-1,2,3-triazol-4-yl)methyl]-quinobenzo[1,4]thiazine [Compound 31] | – | – | – | – | – | – | – | – | – | 1.0 | – | – | 1.0 | MIC S. epidermidis ATCC 12228 [1]: >256 µg/mL; MIC S. aureus ATCC 29213 [2]: >256 µg/mL; MIC P. aeruginosa ATCC 15442 [3]: >256 µg/mL; MIC E. coli ATCC 25922 [4]: >256 µg/mL; MIC S. aureus ATCC 25923 [5]: >256 µg/mL; MIC S. aureus NCTC 4163 [6]: >256 µg/mL; MIC S. epidermidis ATCC 35984 [7]: >256 µg/mL; MIC S. aureus ATCC 6538 [8]: >256 µg/mL; IC50 [9]: > 100 µM; IC50 [10]: > 100 µM; IC50 [11]: > 100 µM
3 | CS(=O)(=O)NCCCN1c2cc(Cl)ccc2Sc2cc3ccccc3nc21 [Compound 22, N-(3-(8-Chloroquino[3,2-b]benzo[1,4]thiazin-6-yl)propyl)methanesulfonamide] | > 256 | > 256 | > 256 | > 256 | > 256 | > 256 | > 256 | > 256 | > 100 | 1.0 | > 100 | > 100 | 1.0 | –
4 | Clc1ccc2c(c1)N(CCN1CCCCC1)c1nc3ccccc3cc1S2 [Compound 10, 8-Chloro-6-(2-(piperidin-1-yl)ethyl)-quino[3,2-b]benzo[1,4]thiazine] | > 256 | > 256 | > 256 | > 256 | > 256 | > 256 | > 256 | > 256 | > 100 | 1.0 | > 100 | 63.8 ± 8.5 | 1.6 | –
5 | 8-Chloro-6-[(1-benzyl-1H-1,2,3-triazol-4-yl)-methyl]-quinobenzo[1,4]thiazine [Compound 29] | – | – | – | – | – | – | – | – | – | 1.0 | – | – | 1.0 | MIC S. epidermidis ATCC 12228 [1]: >256 µg/mL; MIC S. aureus ATCC 29213 [2]: >256 µg/mL; MIC P. aeruginosa ATCC 15442 [3]: >256 µg/mL; MIC E. coli ATCC 25922 [4]: >256 µg/mL; MIC S. aureus ATCC 25923 [5]: >256 µg/mL; MIC S. aureus NCTC 4163 [6]: >256 µg/mL; MIC S. epidermidis ATCC 35984 [7]: >256 µg/mL; MIC S. aureus ATCC 6538 [8]: >256 µg/mL; IC50 [9]: > 100 µM; IC50 [10]: > 100 µM; IC50 [11]: > 100 µM
6 | CC(=O)NCCCCN1c2cc(Cl)ccc2Sc2cc3ccccc3nc21 [Compound 17, N-(4-(8-Chloroquino[3,2-b]benzo[1,4]thiazin-6-yl)butyl)acetamide] | > 256 | > 256 | > 256 | > 256 | > 256 | > 256 | > 256 | > 256 | > 100 | 1.0 | > 100 | 82.3 ± 6.2 | 1.2 | –
7 | CCOC(=O)NCCCN1c2cc(Cl)ccc2Sc2cc3ccccc3nc21 [Compound 18, Ethyl(3-(8-chloroquino[3,2-b]benzo[1,4]thiazin-6-yl)propyl)carbamate] | > 256 | > 256 | > 256 | > 256 | > 256 | > 256 | > 256 | > 256 | > 100 | 1.0 | > 100 | 86.6 ± 0.8 | 1.1 | –
